# In ChEMBL document CHEMBL5230136, “A review: Biologically active 3,4-heterocycle-fused coumarins” (Eur J Med Chem, 2021):
# Several values for one entry are separate records, joined by “and”; a condition that tells them apart may be missing. Equal entries are not always repeated.
# Legend:
# [1] = test system: HCT-15; assay: Anticancer activity against human HCT-15 cells assessed as cell growth inhibition; assay type: functional, cell-based
# [2] = test system: MCF7; assay: Anticancer activity against human MCF7 cells assessed as inhibition of cell proliferation measured after 48 hrs by MTT assay; assay type: functional, cell-based; conditions: MCF7, 48 h
# [3] = Antioxidant activity assessed as DPPH radical scavenging activity; assay type: functional
# [4] = test system: Staphylococcus epidermidis; assay: Antibacterial activity against Staphylococcus epidermidis assessed as reduction in bacterial growth; assay type: functional
# [5] = test system: H69AR; assay: Cytotoxicity against human NCI-H69AR cells assessed as reduction in cell viability by SRB assay; assay type: functional, cell-based
# [6] = test system: HuCC-A1; assay: Antiproliferative activity against human HuCC-A1 cells assessed as reduction in cell proliferation; assay type: functional, cell-based
# [7] = test system: MCF7; assay: Anticancer activity against human MCF7 cells assessed as reduction in cell viability; assay type: functional, cell-based
# [8] = test system: Staphylococcus aureus; assay: Antibacterial activity against Staphylococcus aureus ATCC 29213 assessed as reduction in bacterial growth; assay type: functional
# [9] = test system: Bacillus subtilis; assay: Antibacterial activity against Bacillus subtilis assessed as reduction in bacterial growth; assay type: functional
# [10] = test system: Escherichia coli; assay: Antibacterial activity against Escherichia coli assessed as bacterial growth inhibition; assay type: functional
# [11] = Cytotoxicity against human HCC-S102 cells assessed as reduction in cell viability; assay type: functional, cell-based
# [12] = Inhibition of wild type HIV-1 protease; set-up: species or system Human immunodeficiency virus
# [13] = biological target: Dual specificity tyrosine-phosphorylation-regulated kinase 1A (Homo sapiens, UniProt Q13627); assay: Inhibition of DYRK1A (unknown origin)
# [14] = Inhibition of HIV-1 integrase; set-up: species or system Human immunodeficiency virus 1
# [15] = test system: Escherichia coli; assay: Antibacterial activity against Escherichia coli assessed as bacterial growth inhibition by broth dilution method; assay type: functional
# [16] = test system: RAW264.7; assay: Anti-inflammatory activity against mouse RAW264.7 cells assessed as inhibition of LPS-induced NO production at 50 ug/ml relative to control; assay type: functional; set-up: scale not given: the % may be the effect or the level left; conditions: dose 50 µg/ml
# [17] = test system: HCT-116; assay: Cytotoxicity against human HCT-116 cells assessed as reversal of multi drug resistance at 1 uM; assay type: functional, cell-based
# [18] = test system: L1210; assay: Cytotoxicity against […] cells assessed as reversal of multi drug resistance at 1 uM; assay type: functional, cell-based; conditions: Mus musculus
# [19] = test system: L1210; assay: Cytotoxicity against mouse L1210 cells assessed as reduction in cell viability; assay type: functional, cell-based
# [20] = test system: HCT-116/VM46; assay: cells; conditions: Homo sapiens
# [21] = test system: Staphylococcus aureus; assay: Antibacterial activity against Staphylococcus aureus assessed as zone of inhibition; assay type: functional
# [22] = test system: Bacillus subtilis; assay: Antibacterial activity against Bacillus subtilis assessed as zone of inhibition; assay type: functional
# [23] = test system: Bacillus cereus; assay: Antibacterial activity against Bacillus cereus assessed as zone of inhibition; assay type: functional
# [24] = test system: Pseudomonas aeruginosa; assay: Antibacterial activity against Pseudomonas aeruginosa assessed as zone of inhibition; assay type: functional
# [25] = test system: Escherichia coli; assay: Antibacterial activity against Escherichia coli assessed as zone of inhibition; assay type: functional
# [26] = test system: Klebsiella aerogenes; assay: Antibacterial activity against Enterobacter aerogenes assessed as zone of inhibition; assay type: functional
# [27] = test system: Aspergillus niger; assay: Antifungal activity against Aspergillus niger assessed as zone of inhibition; assay type: functional
# [28] = test system: Penicillium italicum; assay: Antifungal activity against Penicillium italicum assessed as zone of inhibition; assay type: functional
# [29] = test system: Fusarium oxysporum; assay: Antifungal activity against Fusarium oxysporum assessed as zone of inhibition; assay type: functional
# [30] = test system: HeLa; assay: Antiproliferative activity against human HeLa cells assessed as reduction in cell proliferation; assay type: functional, cell-based
# [31] = test system: Candida albicans; assay: […] activity against Candida albicans assessed as zone of inhibition at 20 mg/ml; assay type: functional; conditions: read-out: IZ
# [32] = test system: Serratia marcescens; assay: Antibacterial activity against Serratia marcescens assessed as zone of inhibition; assay type: functional
# [33] = test system: Proteus mirabilis; assay: Antibacterial activity against Proteus mirabilis assessed as zone of inhibition; assay type: functional
# [34] = test system: Aspergillus ochraceus; assay: Antifungal activity against Aspergillus ochraceus assessed as zone of inhibition; assay type: functional
# [35] = test system: Penicillium chrysogenum; assay: Antifungal activity against Penicillium chrysogenum assessed as zone of inhibition; assay type: functional
# [36] = test system: Aspergillus ochraceus; assay: Antifungal activity against Aspergillus ochraceus assessed as zone of inhibition at 20 ug/ml; assay type: functional; conditions: read-out: IZ
molecule,measurement,setting,value
CC(=O)/C=C1\c2c(c3ccccc3oc2=O)OC1(c1ccccc1)N(C)C (stereo unspecified),IC50,[1],8 µM
O=c1oc2ccccc2c2[se]c(CN3CCOCC3)c(Nc3cccnc3)c12,IC50,[2],41 µM
same,IC50,[3],4 µM
COc1cccc2c1OC(=O)C1C(C)=Nc3[nH]n(-c4cc(Cl)ccc4Cl)c(=O)c3C21 (stereo unspecified),MIC,[4],25 µM
COc1cc(-c2c3n(c4c(=O)oc5cc(O)c(OC)cc5c24)CCc2c-3cc(OC)c(OC)c2O)ccc1O,IC50,[5],4.3 µM
same,IC50,[6],3.4 µM
Cc1c(-c2nnn[nH]2)c(=O)oc2c1c(=O)oc1ccccc12,IC50,[7],49 µM
CC1=Nc2[nH]n(-c3ccccc3)c(=O)c2C2c3cc(Cl)cc(Cl)c3OC(=O)C12 (stereo unspecified),MIC,[8],25 µM
same,MIC,[9],6.3 µM
same,MIC,[10],6.3 µM
same,MIC,[4],6.3 µM
COc1cc(-c2c3c4cc(OC)c(O)cc4oc(=O)c3n3ccc4cc(O)c(OC)cc4c23)ccc1O [LAMELLARIN D],IC50,[11],3.2 µM
COc1ccc(-c2c3c4cc(OC)c(O)cc4oc(=O)c3n3ccc4cc(O)c(OC)cc4c23)cc1O,IC50,[12],8 µM
O=c1oc2ccc(O)cc2c2c1[nH]c1ccc(O)cc12,IC50,[13],0.067 µM
COc1ccc(-c2c3c4cc(OC)c(OS(=O)(=O)O)cc4oc(=O)c3n3ccc4cc(OC)c(OC)cc4c23)cc1O,IC50,[14],8 µM
GENTAMICIN,MIC,[15],5 µg/mL
O=C(O)Cc1ccccc1Nc1c(Cl)cccc1Cl [DICLOFENAC],Activity,[16],62%
O=c1oc2cc(O)c(O)cc2c2c(-c3ccc(O)c(O)c3)cn(CCc3ccc(O)c(O)c3)c12,IC50,[17],12 µM
same,IC50,[18],10 µM
same,IC50,[19],10 µM
same,IC50,[20],60 µM
N=c1c2c(=O)oc3ccccc3c2ccn1-c1ccccn1,MIC,[4],50 µg/mL
N#CC1=C(N)Oc2c(c(=O)oc3ccccc23)C1c1ccc(Br)cc1 (stereo unspecified),inhibition zone (IZ),[21],28 mm
same,inhibition zone (IZ),[22],11 mm
same,inhibition zone (IZ),[23],19 mm
same,inhibition zone (IZ),[24],10 mm
same,inhibition zone (IZ),[25],20 mm
same,inhibition zone (IZ),[26],10 mm
same,inhibition zone (IZ),[27],12 mm
same,inhibition zone (IZ),[28],11 mm
same,inhibition zone (IZ),[29],20 mm
O=C(NO)c1cc2c(=O)oc3ccccc3c2s1,IC50,[30],8.84 µM
Nc1cc(=O)[nH]c2c3c(=O)oc4ccccc4c3nn12,zone of inhibition at 20000 µg/mL,[31],10 mm
CC(=O)c1c(O)c2c(cc(O)c3c(=O)oc4c5cccc(C)c5oc(=O)c4c32)oc1=O,MIC,[15],100 µg/mL
same,MIC,[8],150 µM
same,MIC,[10],100 µM
CCOC(=O)c1nnc2c3c(=O)oc4ccccc4c3nn2c1N,zone of inhibition at 20000 µg/mL,[31],10 mm
COc1cc([C@@H]2c3cc4c(cc3[C@@H](O[C@@H]3O[C@@H]5CO[C@@H](C)O[C@H]5[C@H](O)[C@H]3O)[C@H]3COC(=O)[C@H]23)OCO4)cc(OC)c1O [ETOPOSIDE],IC50,[5],45.9 µM
same,IC50,[6],6.8 µM
O=C1CN=C2C3=C(N=CN2N1)Oc1c(c(=O)oc2ccccc12)C3,inhibition zone (IZ),[21],20 mm
same,inhibition zone (IZ),[23],22 mm
same,inhibition zone (IZ),[32],21 mm
same,inhibition zone (IZ),[33],22 mm
same,inhibition zone (IZ),[34],20 mm
same,inhibition zone (IZ),[35],19 mm and 22 mm
same,zone of inhibition at 20 µg/mL,[36],22 mm
